Experimental data published in patent US10054581B1, “Inhibitors of notch signaling pathway and use thereof in treatment of cancers” (Ecole Polytechnique Federale de Lausanne (EPFL), priority 2011, dated 2018).
“Also recorded” adds a separate entry of the source.

Assays:
[1] = test system: Hes1 in DND41-Parental cells; assay: Hes1 Western blot in DND41-Parental cells; type: cell-based, human; details: 24 hours
Method: Cells were lysed in RIPA buffer (50 mM Tris.Cl, pH 7.5, 150 mM NaCl, 1% nonidet P-40, 0.5% sodium deoxycholate and 0.1% SDS) for 30 minutes at 4° C. Lysed cells were centrifuged to remove the debris at 14000 rpm at 4° C. Supernatant was transferred to a new eppendorf tube. The protein concentration was determined by Bradford assay using spectrophotometer (Ultrospec 3000 pro). 40 μg of protein were denatured in 1×SDS gel loading buffer (100 mM Tris.Cl, pH 6.8, 200 mM DTT, 4% SDS, 0.2% bromophenol, 20% glycerol) by heating at 99° C. for 5 minutes. Denatured protein samples were stored on ice until loading on to the acrylamide gel. The samples were run on 8% or 10% acrylamide gel in Tris-glycine electrophoresis buffer (25 mM Tris, 250 mM glycine, 0.1% SDS). […]
For immunoblotting, membranes were blocked with 5% milk and incubated overnight with primary antibodies at 4° C. […] Signal was detected with Super Signal West chemiluminescent substrate (Thermo Scientific, catalog number 34077).
6-(4-Tert-Butylphenoxy)Pyridin-3-Amine (I3) can block NICD mediated activation of the Notch pathway (FIGS. 1A-D). […] In addition, these two cell lines were also monitored over several days for anti-proliferative effects of 6-(4-Tert-Butylphenoxy)Pyridin-3-Amine (I3) and DAPT.

[2] = test system: KOPTK1; assay: Alamar blue proliferation assay, KOPTK1; type: cell-based, human; details: 10 μM, up to 6 days
Method: Human T-ALL cell lines RPMI 8402 and KOPTK1, and pancreatic cancer cell line PANC1 as well as nRas driven melanoma cells were seeded in a 96 well plate and treated with 10 μM concentration of 6-(4-Tert-Butylphenoxy)Pyridin-3-Amine (I3) and DAPT for several days. Their growth inhibitory effects were compared with cells treated with equal amount of DMSO. Using Alamar blue assay, the growth kinetics of RPMI 8402 and KOPTK1 were followed for upto 6 days, while PANC1 and nRas melanoma cells were monitored for 4 days. 6-(4-Tert-Butylphenoxy)Pyridin-3-Amine (I3) treatment of RPMI 8402, KOPTK1. […] Statistical analyses were done using student's t.test. *=p value<0.05. ns=not significant.
Alamarblue® proliferation assays were performed to determine the growth kinetics of Notch inhibitor treated cells. Alamar Blue® consists of a cell permeable substrate resazurin. In metabolically active and proliferating cells, resazurin is converted to resorufin due to an intrinsic reducing power of live cells and produces a red fluorescence. Therefore production of resorufin serves as an indicator of the viability of the cell population.
Proliferation assays were performed by seeding 5000 cells/well in a 96 well plate. Cells were treated with DMSO or Notch inhibitors for different time intervals. […] Alamarblue readout was taken using Tecan F500 (Tecan) multiplate reader. […]

[3] = test system: Notch signalling via DL4:N1 ligand-receptor pair (Notch1); assay: DL4:N1 coculture assay, Notch driven luciferase reporter; type: cell-based, mouse; details: 24 hours; for Notch signalling activation (Notch driven luciferase), concentration dependence: 2, 5 and 10 μM

C[C@H](NC(=O)Cc1cc(F)cc(F)c1)C(=O)N[C@H](C(=O)OC(C)(C)C)c1ccccc1 [DAPT, N—[N-(3,5-difluorophenacetyl-Lalanyl)]-(S)-phenylglycine t-butyl ester, reference compound]
Hes1 protein [1]: led to a downregulation of Hes1; also recorded: caused a downregulation of Hes1 in DND41-Parental cells | proliferation (Alamar blue) [2]: induced a significant proliferation block | Notch signalling activation (Notch driven luciferase), concentration dependence [3]: causes a concentration dependent decrease in Notch signalling activation

CC(C)(C)c1ccc(Oc2ccc(N)cn2)cc1 [I3, 6-(4-Tert-Butylphenoxy)Pyridin-3-Amine]
Hes1 protein [1]: led to a downregulation of Hes1; also recorded: caused a downregulation of Hes1 in DND41-Parental cells | proliferation (Alamar blue) [2]: induced a significant proliferation block; also recorded: caused a significant reduction in their growth potential | Notch signalling activation (Notch driven luciferase), concentration dependence [3]: blocks Notch signalling in a concentration dependent manner; also recorded: causes a concentration dependent decrease in Notch signalling activation | IC50 value, Notch signalling in DL4:N1 coculture assay ([3]; increasing concentration 2-10 μM): in the lower μM range
